# In PubChem BioAssay (NCI):
#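 Step 1: Grow cells in 96-well plates. Step 2: Expose to compound for 48 hours at 5 concentrations. Step 3: Interpolate endpoints linearly; if unreached, use highest concentration. GI50 is the concentration that inhibits growth by half. Definition used: TGI = concentration required for complete inhibition of growth.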
# Key:
# Test in all cases: NCI anticancer screen, dose series, 48 h
# [1] = system: SK-MEL-5 melanoma
# [2] = system: SK-MEL-2 melanoma
# [3] = system: NCI-H522 lung
# [4] = system: SF-539 CNS
# [5] = system: NCI-H226 lung
# [6] = system: K-562 leukemia
# [7] = system: A549 NSCLC
# [8] = system: KM12 colon
# [9] = system: RPMI-8226 leukemia
# [10] = system: OVCAR-5 ovarian
# [11] = system: COLO 205 colon
# [12] = system: LOX IMVI melanoma
# [13] = system: CAKI-1 renal
# [14] = system: NCI-H23 lung
# [15] = system: SW-620 colon
# [16] = system: HCC-2998 colon
# [17] = system: U251 CNS
# [18] = system: EKVX NSCLC
# [19] = system: DU-145 prostate
# [20] = system: MCF7 breast
# [21] = system: IGROV1 ovarian
# [22] = system: HCT-116 colon
# [23] = system: SF-295 CNS
# [24] = system: NCI-H460 lung
# [25] = system: SNB-19 CNS
# [26] = system: PC-3 prostate
# [27] = system: TK-10 renal
# [28] = system: UO-31 renal
# [29] = system: MOLT-4 leukemia
# [30] = system: MDA-MB-435
# [31] = system: SF-268 CNS
# [32] = system: HL-60(TB) leukemia
# [33] = system: M14 melanoma
# [34] = system: RXF 393 renal
# [35] = system: A498 renal
# [36] = system: SK-MEL-28 melanoma
# [37] = system: BT-549 breast
# [38] = system: 786-0 renal
# [39] = system: HS 578T breast
# [40] = system: SK-OV-3 ovarian
# [41] = system: HOP-92 NSCLC
# [42] = system: ACHN renal
# [43] = system: UACC-257 melanoma
# [44] = system: SR leukemia
# [45] = system: OVCAR-4 ovarian
# [46] = system: MDA-MB-468 breast
# [47] = system: UACC-62 melanoma
# [48] = system: OVCAR-8 ovarian
# [49] = system: MDA-MB-231 breast
# [50] = system: HCT-15 colon
# [51] = system: SN12C renal
# [52] = system: OVCAR-3 ovarian
# [53] = system: CCRF-CEM leukemia
# [54] = system: HT29 colon
# [55] = system: MALME-3M melanoma
# [56] = system: HOP-62 NSCLC
structure (smiles),measurement,setting,value
Cc1ccc2nc(COc3ccc(C(=O)NNC(=O)Nc4ccc(Cl)c(C(F)(F)F)c4)cc3)[nH]c2c1,GI50,[1],11.8 µM
same,TGI,[1],28.4 µM
same,GI50,[2],15.9 µM
same,TGI,[2],44.7 µM
same,GI50,[3],13.8 µM
same,TGI,[3],39.7 µM
same,GI50,[4],4 µM
same,TGI,[4],20.1 µM
same,GI50,[5],12.2 µM
same,TGI,[5],39.7 µM
same,GI50,[6],6.1 µM
same,TGI,[6],> 100 µM
same,GI50,[7],7.96 µM
same,TGI,[7],71.1 µM
same,GI50,[8],29.5 µM
same,TGI,[8],> 100 µM
same,GI50,[9],49.8 µM
same,TGI,[9],> 100 µM
same,GI50,[10],26.6 µM
same,TGI,[10],> 100 µM
same,GI50,[11],21.7 µM
same,TGI,[11],71.8 µM
same,GI50,[12],4.04 µM
same,TGI,[12],18.7 µM
same,GI50,[13],21 µM
same,TGI,[13],64.2 µM
same,GI50,[14],10.8 µM
same,TGI,[14],29.7 µM
same,GI50,[15],10.7 µM
same,TGI,[15],36.9 µM
same,GI50,[16],28.8 µM
same,TGI,[16],> 100 µM
same,GI50,[17],4.13 µM
same,TGI,[17],17.9 µM
same,GI50,[18],41.8 µM
same,TGI,[18],> 100 µM
same,GI50,[19],30.4 µM
same,TGI,[19],> 100 µM
same,GI50,[20],3.61 µM
same,TGI,[20],17.2 µM
same,GI50,[21],9.96 µM
same,TGI,[21],27.2 µM
same,GI50,[22],45.1 µM
same,TGI,[22],> 100 µM
same,GI50,[23],12.3 µM
same,TGI,[23],25.9 µM
same,GI50,[24],7.24 µM
same,TGI,[24],23.4 µM
same,GI50,[25],5.59 µM
same,TGI,[25],19.9 µM
same,GI50,[26],6.71 µM
same,TGI,[26],36.2 µM
same,GI50,[27],49.4 µM
same,TGI,[27],> 100 µM
same,GI50,[28],> 100 µM
same,TGI,[28],> 100 µM
same,GI50,[29],21.6 µM
same,TGI,[29],> 100 µM
same,GI50,[30],5.08 µM
same,TGI,[30],36.5 µM
same,GI50,[31],6.57 µM
same,TGI,[31],> 100 µM
same,GI50,[32],> 100 µM
same,TGI,[32],> 100 µM
same,GI50,[33],8.45 µM
same,TGI,[33],> 100 µM
same,GI50,[34],6.32 µM
same,TGI,[34],22 µM
same,GI50,[35],75.9 µM
same,TGI,[35],> 100 µM
same,GI50,[36],2.94 µM
same,TGI,[36],9.25 µM
same,GI50,[37],13 µM
same,TGI,[37],88.1 µM
same,GI50,[38],14.6 µM
same,TGI,[38],41.6 µM
same,GI50,[39],2.98 µM
same,TGI,[39],53.9 µM
same,GI50,[40],21.2 µM
same,TGI,[40],54.1 µM
same,GI50,[41],5.38 µM
same,TGI,[41],24 µM
same,GI50,[42],27.4 µM
same,TGI,[42],> 100 µM
same,GI50,[43],5.11 µM
same,TGI,[43],58 µM
same,GI50,[44],8.46 µM
same,TGI,[44],> 100 µM
same,GI50,[45],18 µM
same,TGI,[45],66.8 µM
same,GI50,[46],2.77 µM
same,TGI,[46],7.77 µM
same,GI50,[47],5.31 µM
same,TGI,[47],19.8 µM
same,GI50,[48],5.54 µM
same,TGI,[48],47.9 µM
same,GI50,[49],6.31 µM
same,TGI,[49],26 µM
same,GI50,[50],49.1 µM
same,TGI,[50],> 100 µM
same,GI50,[51],10.3 µM
same,TGI,[51],50 µM
same,GI50,[52],24.2 µM
same,TGI,[52],> 100 µM
same,GI50,[53],51.2 µM
same,TGI,[53],> 100 µM
same,GI50,[54],19.5 µM
same,TGI,[54],84.9 µM
same,GI50,[55],2.06 µM
same,TGI,[55],5.06 µM
same,GI50,[56],5.68 µM
same,TGI,[56],21.6 µM
